In patent US20100184807A1, “Methods to inhibit tumor cell growth by using proton pump inhibitors” (Bio-Quant, Inc., priority 2008, published 2010):

Columns and labels:
[1] = test system: G401 rhabdoid (kidney) cancer cells; assay: Xenograft nude mouse model, G401; type: in vivo; details: nude mice, 100 mg/kg in PEG300
Procedure: (§1) JR (rhabdomyosarcoma), HepG2 (liver carcinoma), SR Liquid Leukemia (leukemia), RSI 184 B Lymphoma (lymphoma), and G401 rhabdoid (kidney) cancer cells for use in a xenograft mouse model were collected from JR, HepG2, SR Liquid Leukemia, RS1184 B Lymphoma, and G401 rhabdoid tumor cell lines and injected at 5×10^6 cells per nude mouse in a volume of 100 μl subcutaneously. The animals were examined three times weekly to determine the progression of the tumors and determine body weight. Dosing started when tumors reached the ˜75-150 mm^3 size. Animals were randomized and distributed in groups in such a way that mean tumor weights in all groups were within 15% of the mean tumor weight in Group 1 (Control—vehicle group). Upon reaching the ˜75-150 mm^3 target size an effective amount of lansoprazole was administered to the mice in a suspension of PEG300 at a concentration of 100 mg/kg.

[2] = test system: SR Liquid Leukemia (leukemia); assay: Xenograft nude mouse model, SR Liquid Leukemia; type: in vivo; details: nude mice, 100 mg/kg in PEG300
Procedure: as §1

HepG2 (liver carcinoma) = assay: Xenograft nude mouse model, HepG2; type: in vivo; details: nude mice, 100 mg/kg in PEG300
Procedure: as §1

GDM-1 (leukemia) = assay: MTT tumor cell growth assay; type: cell-based
Procedure: (§2) In one study, adherent cells were plated approximately 16-24 hours before the day of the experiment in 180 μl growth media. On the day of the experiment, the plated adherent cells were analyzed and counted and suspension cells were plated in 180 μl growth media. 10× lansoprazole compounds and vehicle was prepared. The 10× lansoprazole compounds were prepared by diluting lansoprazole to final concentrations of 100 μM, 30 μM, 10 μM, 3 μM, and 1 μM. A vehicle was prepared by preparing a solution of PBS, equivalent to the volume used for 10 μM lansoprazole wherein the 1× solution constitutes ˜0.06% PBS. 10 μl of the various 10× lansoprazole solutions and the vehicle were added to the cells. The cells were incubated at 37° C., 5% CO2 for 48 hours. The media was then aspirated. The cell suspension was then spun at 1500 RPM for 10 minutes. The media was slowly removed. 200 μl of MTT solution was added to each well with a concentration of 0.863 mg/ml MTT in the growth media. The cells were incubated at 37° C., 5% CO2 for 4 hours and the medium is then aspirated. The plate containing the cell suspension was then spun at 1500 RPM for 10 minutes. The media was slowly removed using a multichannel pipettor. 100 μl of DMSO was then added to each well. The cells were incubated at 37° C., 5% CO2 for 5 minutes and the absorbance was obtained at 560 nm using a Dynex Opsys MR plate reader. The cells used for this procedure were the following cell lines: IGROV1 (ovarian cancer); OVCAR 8 (ovarian cancer); ES-2 (ovarian cancer); CAOV3 (ovarian cancer); OVCAR5 (ovarian cancer); SUDHL4 (lymphoma); RPMI8226 (myeloma); RPMI6666 (Hodgkin's lymphoma); NC37 (lymphoma); GDM-1 (leukemia); MC/CAR (prostate cancer); DU-145 (prostate cancer), J45-01 (leukemia), MOLT3 (leukemia), HUT78, J-gamma-1 (leukemia), MCF7 […], COL0205 (colon cancer), HL60 CLONE 15 (leukemia), T47D (breast cancer), P116 (intestinal cancer), KU812 (leukemia), SW620 (colon cancer), MK92-M1 (lymphoma), MV-4-11 (leukemia), HS578T (breast cancer), HT29 (colon cancer), HCT 116 (colon cancer), CAKI-1 (kidney cancer), A549 (lung cancer), H460 (lung cancer), A3 (colon cancer), MDA-MB231 […], MALME 3M (melanoma), RXF393 (kidney cancer), RS4.11 (leukemia), PC3 (prostate cancer), OVCAR3 (ovarian cancer), MDA-MB435 (melanoma), HUT102 (lymphoma), HL60 (leukemia), CCRF-CEM (leukemia), HUT78 (lymphoma), 786-O (kidney cancer), ACHN (kidney cancer), A498 (kidney cancer), H226 (lung cancer), H522 (lung cancer), HOP92 (lung cancer), SNB 19 (brain cancer), OVCAR4 (ovarian cancer), H9 (lymphoma), UO-31 (kidney cancer), HH (lymphoma), DAUDI (leukemia), LOXIMVI (melanoma), NAMALWA (lymphoma), EKVX (lung cancer), DOHH2 (lymphoma), SNB75 (brain cancer), SKMEL28 (melanoma), SKMEL5 (melanoma), SKMEL2 (melanoma), M14 (melanoma), UACC 257 (melanoma), H332M (lung cancer), KM12 (colon cancer), HCC2998 (colon cancer), G401 (kidney cancer), RS1184 (lymphoma), MC116 (leukemia), MOLT4 (leukemia), JM1 (liver cancer), HOP-62 (lung cancer), HCT-15 (colon cancer), SF-539 (brain cancer), SF295 (brain cancer), ST486 (lymphoma), U251 (brain cancer), and UACC-62 (melanoma).
(§3) Experiments, as described in Example I were conducted with lansoprazole, omeprazole and SCH 28080 at concentrations of 1 μM, 10 μM, and 100 μM. FIGS. 3A-3K show the experimental results when tumor cells from the following cell lines were treated with lansoprazole, omeprazole, and SCH 28080: IGROV1 (FIG. 3A), OVCAR8 (FIG. 3B), ES-2 (FIG. 3C), CAOV3 (FIG. 3D), OVCAR5 (FIG. 3E), SUDHL4 (FIG. 3F), RPMI8226 (FIG. 3G), RPMI6666 (FIG. 3H), NC37 (FIG. 3I), GDM-1 (FIG. 3J), and MC/CAR (FIG. 3K).

[3] = test system: RPMI6666 (Hodgkin's lymphoma); assay: MTT tumor cell growth assay; type: cell-based
Procedure: as §2, §3

RPMI8226 (myeloma) = assay: MTT tumor cell growth assay; type: cell-based
Procedure: as §2, §3

SUDHL4 (lymphoma) = assay: MTT tumor cell growth assay; type: cell-based
Procedure: as §2, §3

NC37 (lymphoma) = assay: MTT tumor cell growth assay; type: cell-based
Procedure: as §2, §3

MC/CAR (prostate cancer) = assay: MTT tumor cell growth assay; type: cell-based
Procedure: as §2, §3

## Cc1c(OCC(F)(F)F)ccnc1C[S+]([O-])c1nc2ccccc2[nH]1 (stereo not drawn) [lansoprazole]
[1]
  treating tumor cells derived from tumor cell line: especially effective
[2]
  treating tumor cells derived from tumor cell line: especially effective
HepG2 (liver carcinoma)
  treating tumor cells derived from tumor cell line: especially effective
GDM-1 (leukemia); GDM-1 (FIG. 3J), 10 μM
  reducing tumor cell growth: effective in reducing tumor cell growth
GDM-1 (leukemia); GDM-1 cells, lansoprazole 1-100 μM, 48 hours, MTT
  tumor cell growth reduction: significant tumor cell growth reduction
[3]; RPMI6666 (FIG. 3H), 100 μM
  reducing tumor cell growth: effective in reducing tumor cell growth
[3]; RPMI6666 cells, lansoprazole 1-100 μM, 48 hours, MTT
  tumor cell growth reduction: significant tumor cell growth reduction
RPMI8226 (myeloma); RPMI8226 (FIG. 3G), 100 μM
  reducing tumor cell growth: effective in reducing tumor cell growth
RPMI8226 (myeloma); RPMI8226 cells, lansoprazole 1-100 μM, 48 hours, MTT
  tumor cell growth reduction: significant tumor cell growth reduction
SUDHL4 (lymphoma); SUDHL4 (FIG. 3F), 100 μM
  reducing tumor cell growth: effective in reducing tumor cell growth
SUDHL4 (lymphoma); SUDHL4 cells, lansoprazole 1-100 μM, 48 hours, MTT
  tumor cell growth reduction: significant tumor cell growth reduction
NC37 (lymphoma); NC37 (FIG. 3I), 100 μM
  reducing tumor cell growth: effective in reducing tumor cell growth
NC37 (lymphoma); NC37 cells, lansoprazole 1-100 μM, 48 hours, MTT
  tumor cell growth reduction: significant tumor cell growth reduction
MC/CAR (prostate cancer); MC/CAR (FIG. 3K), 100 μM
  reducing tumor cell growth: effective in reducing tumor cell growth
MC/CAR (prostate cancer); MC/CAR cells, lansoprazole 1-100 μM, 48 hours, MTT
  tumor cell growth reduction: significant tumor cell growth reduction
